Measured values taken from patent US10696686B2, “Herbicidally active (alkynyl-phenyl)-substituted cyclic dione compounds and derivatives thereof” (Syngenta Limited, priority 2013, dated 2020).

Key:
Format in all cases: in vivo
[1] = tested on: Brachiaria decumbens (BRADC); test: Biological Example 3 glasshouse assay using various adjuvant systems, post-emergence foliar spray; details: 8 g/ha
Procedure: (§1) Post-emergence foliar spray application, 200 L/ha, usually one or two replicates for the weeds (depending on application rate), and two replicates for soybean.
(§2) Standard warm conditions (tropical), in glasshouse. Specifically, the glasshouse bay conditions are 24° C./18° C. day/night; 16/8 hours light/dark; 65% humidity.
(§3) The herbicidal application takes place at the following growth stages for plants which include inter alia one or more of the following plants (usually the herbicidal application takes place on at least the following plants: DIGSA, ELEIN, SETFA, ZEAMX, GLXMA Nikko, and GLXMA TMG133, and often also either BRADC or BRAPP):
Brachiaria decumbens (BRADC)—growth stage (GS) 12 or 13 (or GS 12)—or, if BRADC is not used, then usually Brachiaria platyphylla (BRAPP)—growth stage 12 or 13
(§4) Each test compound is applied with one of the following adjuvant systems (all percentages are final concentrations in the aqueous spray mixture):
(§5) Adjuvant system 1: 0.5% v/v Adigor™ *, 1.0% v/v AMS (ammonium sulphate) and 12.5% v/v IPA (isopropyl alcohol).
(§6) Adjuvant system 1A: 0.5% v/v Adigor™ * and 12.5% v/v IPA (isopropyl alcohol).
CAS Registry no. 166412-78-8), and is usually available from BASF. “Isononyl” in this context is thought to mean a mixture of two or more branched isomers of C9H19. […] A visual assessment of the % herbicidal damage is made 7 and 14 Days After herbicide Application (DAA) (or, in a minority of cases, 7 and 15 DAA), and the results are recorded as % visual herbicidal damage where 0%=no damage to plants and 100%=plant totally killed. *** Adjuvant system=either Adigor™ or Hexamoll DINCH™ or tris-(2-ethylhexyl) phosphate each at 0.5% v/v, and 12.5% v/v IPA (isopropyl alcohol), and 1.0% v/v AMS (ammonium sulphate); or 0.5% v/v Adigor™ and 12.5% v/v IPA (isopropyl alcohol); all percentages are final concentrations in the aqueous spray mixture. […]

[2] = tested on: Setaria faberi (SETFA); test: as above; details: 8 g/ha
Procedure: as §1, §2, §3
Setaria faberi (SETFA)—growth stage 12 or 13
as §4, §5, §6
CAS Registry no. […] A visual assessment of the % herbicidal damage is made 7 and 14 Days After herbicide Application (DAA) (or, in a minority of cases, 7 and 15 DAA), and the results are recorded as % visual herbicidal damage where 0%=no damage to plants and 100%=plant totally killed. *** Adjuvant system=either Adigor™ or Hexamoll DINCH™ or tris-(2-ethylhexyl) phosphate each at 0.5% v/v, and 12.5% v/v IPA (isopropyl alcohol), and 1.0% v/v AMS (ammonium sulphate); or 0.5% v/v Adigor™ and 12.5% v/v IPA (isopropyl alcohol); all percentages are final concentrations in the aqueous spray mixture. […]
The percentages of herbicidal damage/plant control, at 14 Days After herbicide Application (DAA) (or, in a minority of cases, at 15 DAA), for the Compounds tested and for some of the plants tested, were in the following percentage ranges. […] Phytotoxicity on Glycine max (GLXMA, Soybean) Cultivar “TMG133” Glycine max (GLXMA, soybean) cultivar “TMG133” is Roundup Ready™ glyphosate-tolerant soybean cultivar TMG133, and is typically available from Monsanto in Brazil.

[3] = tested on: Alopecurus myosuroides (ALOMY); test: Biological Example 1B glasshouse assay, pre-emergence application; details: 250 g/ha, 13 days after application
Procedure: (§7) Seeds of a variety of test plant species were sown in standard soil ** in pots. After cultivation for one day (pre-emergence) or after 8 days cultivation (post-emergence) under controlled conditions in a glasshouse (at 24/16° C., day/night; 14 hours light; 65% humidity), the plants were sprayed with an aqueous spray solution derived from the formulation of the technical active ingredient (the test herbicide) in acetone/water (50:50) solution containing 0.5% Tween 20 (polyoxyethylene sorbitan monolaurate, CAS Reg. No. 9005-64-5). The test plants were then grown on under controlled conditions in a glasshouse (at 24/16° C., day/night; 14 hours light; 65% humidity) and watered twice daily. 13 Days after application of the test herbicide, for pre- and post-emergence, the test was evaluated visually for percentage phytotoxicity to each plant (where 100%=total damage to plant; 0%=no damage to plant). Generally, each test herbicide is only tested on 1 plant per plant species for each application rate tested and for each application timing. ** The “standard soil” in Biological Example 1 is usually a “sand” or “sandy loam” type of soil.
(§8) Dicotyledonous weeds: ABUTH=Abutilon theophrasti; AMARE=Amaranthus retroflexus. Grassy monocotyledonous weeds: SETFA=Setaria faberi; ALOMY=Alopecurus myosuroides; ECHCG=Echinochloa crus-galli; ZEAMX=Zea mays (corn, maize, e.g. volunteer corn). For Compound A16, the grassy monocotyledonous weed LOLPE (Lolium perenne) was used in the test insterad of ALOMY.

[4] = tested on: Amaranthus retroflexus (AMARE); test: as above; details: 250 g/ha, 13 days after application
Procedure: as §7, §8

[5] = tested on: Glycine max (GLXMA, soybean) cultivar Nikko; test: Biological Example 3 glasshouse assay using various adjuvant systems, post-emergence foliar spray; details: for percentage phytotoxicity on Glycine max (GLXMA, soybean) cultivar Nikko: post-emergence
Procedure: as §1, §2, §3
Glycine max (GLXMA, soybean) cultivar “Nikko”—growth stage: 1st trifoliate
as §4, §5, §6
CAS Registry no. 166412-78-8), and is usually available from BASF. “Isononyl” in this context is thought to mean a mixture of two or more branched isomers of C9H19. Method: Seeds of the weed (including volunteer) plants, typically including inter alia Digitaria sanguinalis (DIGSA), Eleusine indica (ELEIN), Setaria faberi (SETFA), Zea mays (ZEAMX, corn), and sometimes also [either Brachiaria decumbens (BRADC) or Brachiaria platyphylla (BRAPP)], are sown in seed trays (troughs) containing clay loam soil (pH 7.0, 2.2% organic matter, “Trough Mix A”); and soybean seed is sown in pots containing the same soil with 3 soybean seedlings per pot. The plants are sprayed with the test herbicide when they reach the growth stages mentioned above. The test herbicidal solutions are prepared by mixing the appropriate aliquots of the test substance(s) and one of the adjuvant systems indicated above *** in deionised water to give the desired treatment concentration. The herbicidal application is made as a foliar spray, using a tracksprayer. Following the herbicidal application, the plants are watered twice per day for the duration of the test. A visual assessment of the % herbicidal damage is made 7 and 14 Days After herbicide Application (DAA) (or, in a minority of cases, 7 and 15 DAA), and the results are recorded as % visual herbicidal damage where 0%=no damage to plants and 100%=plant totally killed. *** Adjuvant system=either Adigor™ or Hexamoll DINCH™ or tris-(2-ethylhexyl) phosphate each at 0.5% v/v, and 12.5% v/v IPA (isopropyl alcohol), and 1.0% v/v AMS (ammonium sulphate); or 0.5% v/v Adigor™ and 12.5% v/v IPA (isopropyl alcohol); all percentages are final concentrations in the aqueous spray mixture.
Compounds A8, A11 and A17, which are compounds of formula (I) according to the present invention, were tested in a test method substantially as described above.
Compound A8 was tested using the 0.5% v/v Adigor™+12.5% v/v IPA adjuvant system. Compounds A11 and A17 were tested using the 0.5% v/v Adigor™+1.0% v/v AMS+12.5% v/v IPA adjuvant system.
The percentages of herbicidal damage/plant control, at 14 Days After herbicide Application (DAA) (or, in a minority of cases, at 15 DAA), for the Compounds tested and for some of the plants tested, were in the following percentage ranges. At least for Compounds A8 and A17, the phytotoxicity results shown herein are the average of 2 repetitions (for the grassy weeds, corn and soybean). […] Control of Zea mays (ZEAMX, Corn), a Warm-Climate (Warm-Season) Grassy Plant Zea mays (ZEAMX, maize, corn) is often present as a “volunteer” weed (“volunteer” corn) in fields where it was planted as a crop in preceding growing season(s) and where the present field crop is not corn. […]

[6] = 14 DAA, adjuvant 0.5% v/v Adigor + 12.5% v/v IPA
[7] = 14 DAA (A11: 14 or 15 DAA), adjuvant 0.5% v/v Adigor + 1.0% v/v AMS + 12.5% v/v IPA

Q: What does the source list for `C#CCC1CC(=O)C(c2c(F)cc(C#CC)cc2OC)C1=O` (stereo not shown) [Compound A8, 2-(2-fluoro-6-methoxy-4-prop-1-ynyl-phenyl)-4-prop-2-ynyl-cyclopentane-1,3-dione]?
A: percentage control of (phytotoxicity on) Brachiaria decumbens (BRADC) [1, 6]: 0%; percentage control of (phytotoxicity on) Setaria faberi (SETFA) [2, 6]: 75%; Percentage phytotoxicity ALOMY [3]: 90%; Percentage phytotoxicity AMARE [4]: 0%; percentage phytotoxicity on Glycine max (GLXMA, soybean) cultivar Nikko ([5]; 120 g/ha, 14 DAA, adjuvant 0.5% v/v Adigor + 12.5% v/v IPA): 30%; phytotoxicity on soybean (in words) ([5]; see Biological Example 3 (soybean cultivars Nikko and TMG133)): low phytotoxicity

Q: Which results are given for `CC#Cc1cc(F)c(C2C(=O)CC(CCSC)CC2=O)c(OC)c1` (stereo not shown) [Compound A11]?
A: percentage control of (phytotoxicity on) Brachiaria decumbens (BRADC) [1, 7]: 0%; percentage control of Setaria faberi (SETFA) [2, 7]: 0%; percentage phytotoxicity on Glycine max (GLXMA, soybean) cultivar Nikko ([5]; 120 g/ha, 14 DAA (A11: 14 or 15 DAA), adjuvant 0.5% v/v Adigor + 1.0% v/v AMS + 12.5% v/v IPA): 5%; percentage phytotoxicity on Glycine max (GLXMA, soybean) cultivar Nikko ([5]; 240 g/ha, 14 DAA (A11: 14 or 15 DAA), adjuvant 0.5% v/v Adigor + 1.0% v/v AMS + 12.5% v/v IPA): 5%
